What was measured:
[1] = tested on: RAW 264.7 cells in high glucose medium; experiment: Osteoclastogenesis and autophagy of RANKL-treated RAW 264.7 cells in high glucose medium; format: cell-based; conditions: for RANKL-induced mRNA expression of Cathepsin K and TRAP: high glucose 25 mM, AdipoRon 20 μM; for LC3 mRNA, LC3II protein and LC3 puncta: high glucose medium with RANKL
Procedure: FIG. 20 RAW 264.7 cells were treated with RANKL (100 ng/ml) with or without AdipoRon ([…]) or AdipoAI (5 μM) in low (5 mmol/l) glucose, 20 mmol/l D-mannitol or high (25 mmol/l) glucose medium. qRT-PCR analysis of cathepsin K (A), TRAP (B) and microtubule associated protein 1 light chain 3 (LC3) (C), and mRNA expression were calculated (n≥3). (D) Western blot analysis of LC3A/B protein levels normalized to β-actin. (E) The mean of protein/β-actin ratios normalized to 1.0 (RANKL-AdipoRon-AdipoAI-H group) quantified by densitometry. (F) Autophagosome images obtained with laser confocal microscopy after the RAW 264.7 cells were transfected with a GFP-LC3 plasmid and treated with RANKL and AdipoRon or AdipoAI (scale bar=50 μm). Data are shown as mean±SD. *, P<0.05. **P<0.01. ***P<0.001.
FIG. 21 Autophagy inhibitor reverses AdipoAI-inhibited osteoclastogenesis in high glucose medium. RAW 264.7 cells were treated with RANKL (100 ng/ml) in 2 days and with or without AdipoAI (5 μM) for 24 hours followed by 3-methyladenine (3-MA, 2.5 mM) treatment for another 24 hours in high glucose medium. qRT-PCR analysis of cathepsin K (A), TRAP (B) and LC3 (C) mRNA expression were calculated (n≥3). (D) Western blot analysis of LC3A/B protein levels normalized to β-actin. (E) The mean of protein/β-actin ratios normalized to 1.0 (3-MA-, RANKL-, AdipoAI-group) quantified by densitometry. Data are shown as mean±SD. *, P<0.05. **P<0.01. ***P<0.001.
FIG. 22 AdipoAI-induced autophagy of osteoclasts in high glucose medium via AKT1/mTOR signaling pathway. RAW 264.7 cells were induced with RANKL for 2 days and then treated with or without (5 μM) additional 24 hours after serum starvation for 4 hours. Then, the cells were treated with RANKL, AdipoAI or SC79 (5 μM), an AKT activator, for another 24 hours in high glucose medium. qRT-PCR analysis of mRNA expression of cathepsin K (A), TRAP (B) and LC3 (C) were calculated (n≥3). (D) Representative images show the protein expression levels of AKT, p-AKT, AKT1, p-AKT1, mTOR, p-mTOR, and LC3A/B in osteoclasts. Quantitative analysis of bands is shown in (E-K) (n≥3). Data are shown as mean±SD. *, P<0.05. **P<0.01. ***P<0.001. R: RANKL. A, AI: AdipoAI. SC5: SC79 (5 μM).
RAW 264.7 cells (ATCC, Manassas, VA, USA) were cultured and passaged in DMEM supplemented with 10% (v/v) FBS (Invitrogen, Grand Island, NY, USA) and 1% Penicillin-Streptomycin (Gibco, Gaithersburg, MD, USA). For the induction of osteoclastogenesis, RAW 264.7 cells were cultured 24 in α-MEM supplemented with 10% FBS and 1% Penicillin-Streptomycin in the presence of 100 ng/ml RANKL (Peprotech, Rocky Hill, NJ, USA) for 2 days, and subsequently treated or not with AdipoRon or AdipoAI for another 2 days changing cell culture medium every 2 days. After a total of […] of culture, morphologic examination was performed, as was mRNA and protein expression. To simulate high glucose environment in vitro, α-MEM was supplemented with D-glucose to 25 mmol/l (high glucose) or 5 mmol/l (physiological glucose). 20 mmol/l D-mannitol served as an osmotic control.
Total RNA was isolated from cell cultures and gingival soft tissues using TriZol reagent (Life Technologies, Carlsbad, CA, USA) according to the manufacturer's instructions^24. Reverse transcription was performed using the PrimeScript RT Master Mix (Takara Bio, Otsu, Japan) and real-time-qPCR analyses were performed using SYBR-Green Real-Time PCR Master Mix (Takara Bio, Otsu, Japan) as described earlier^27.
Total cellular extracts were prepared using RIPA Lysis and Extraction Buffer containing three Protease Inhibitors (Santa Cruz, Dallas, TX, USA). Western blot analyses were performed as previously described 24. Antibodies for β-actin (1:2000) and GAPDH (1:5000), LC3A/B (1:1000), AKT1 (1:1000), p-AKT1 (1:1000), AKT (1:1000), p-AKT (1:1000), mTOR (1:1000), p-mTOR (1:1000) were purchased from Abcam and Cell Signaling Technology, respectively. SC79, an AKT activator was purchased from Sigma Aldrich. […]

[2] = tested on: LPS-stimulated RAW 264.7 macrophages; experiment: qPCR of cytokine mRNA in LPS-stimulated RAW 264.7 macrophages; format: cell-based; conditions: for expression of anti-inflammatory cytokine IL-10: LPS-induced macrophages; for IL-10 expression, longer treatments / IL-10 mRNA expression, treatment for 18 h or less: macrophages; for IL-10 expression, longer treatments: longer than 18 h; for IL-10 mRNA expression, treatment for 18 h or less: no LPS
[3] = AdipoAI 5 μM, RANKL, high glucose medium

Row | SMILES | RANKL-induced mRNA expression of Cathepsin K and TRAP ([1]; AdipoAI 5 μM) | LC3 mRNA, LC3II protein and LC3 puncta [1] | expression of anti-inflammatory cytokine IL-10 [2] | IL-10 expression, longer treatments [2] | IL-10 mRNA expression, treatment for 18 h or less [2] | expression of AKT [1, 3] | expression of LC3II [1, 3] | reduction of phosphorylation of AKT [1, 3] [%] | reduction of phosphorylation of AKT1 [1, 3] [%] | reduction of phosphorylation of mTOR [1, 3] [%] | TNF-α expression levels ([2]; LPS-induced Raw264.7 macrophage, BMMs or PEMs (data not shown))
1 | O=C(COc1ccc(C(=O)c2ccccc2)cc1)NC1CCN(Cc2ccccc2)CC1 [AdipoRon, reference compound] | decreased the RANKL-induced mRNA expression of osteoclastogenesis markers | increased the mRNA expression of LC3, protein expression of LC3II and LC3 puncta | downregulated expression of the anti-inflammatory cytokine IL-10 | decreased IL-10 expression | increased IL-10 mRNA expression |  |  |  |  |  | 
2 | COc1ccc(CN2CCC(NC(=O)COc3ccc(C(=O)c4ccc(Cl)cc4)cc3)CC2)cc1 [Compound 3] | decreased the RANKL-induced mRNA expression of osteoclastogenesis markers | increased the mRNA expression of LC3, protein expression of LC3II and LC3 puncta | downregulated expression of the anti-inflammatory cytokine IL-10 | decreased IL-10 expression | increased IL-10 mRNA expression | inhibits the expression of AKT | promotes the expression of LC3II | 21 | 40 | 25 | did not inhibit TNF-α expression levels

— US12391646B2, “Using adiponectin receptor agonists to treat inflammation and bone diseases in diabetes” (Trustees of Tufts College, priority 2020, dated 2025)
